Experimental data as given in US20240140935A1, “NON-COVALENT DIMER CATION, SALT THEREOF, PREPARATION METHOD THEREOF, AND USE THEREOF AS ANTIOXIDANT” (SUZHOU PROTONATION CHAIN BIOTECHNOLOGY CO., LTD., priority 2022, published 2024).

Columns and labels:
[1] = test system: L02 human normal hepatocytes; test: Carbon tetrachloride hepatotoxicity cell model, levels of ROS, MDA, GSH, SOD and ATP in cell lysate; format: cell-based
Description: The salts of Example 1, Example 16, and Example 13 were taken as the compound of experimental groups, vitamin E was taken as the compound of control group. A blank group (without carbon tetrachloride) and a model group (with carbon tetrachloride but with neither the salt of the present application nor vitamin E) were also set.
L02 human normal hepatocytes were uniformly inoculated into a 96-well plate, about 5,000 cells per well. The cells were cultured in a complete DMEM for 6 h. After the cells were completely adhered to the wall, all the media were removed, 100 μL of serum-free DMEM containing 0.02 mg/mL carbon tetrachloride (for the blank group, a serum-free medium without carbon tetrachloride) was added to each well, and the cells were cultured for 12 h. Then, all the media were removed, 100 μL of serum-free DMEM containing […] compound of experimental groups or control group was added to each well (for the blank group and the model group, serum-free DMEM without the compound) according to the groups, and the cells were cultured for 24 h.
(§1) 50 μL of RIPA lysis buffer (strong) was added to each well to lyse the cells, and levels of reactive oxygen species, malondialdehyde, glutathione, superoxide dismutase, and adenosine triphosphate in the cells of each group were detected by using corresponding chemical reagents.

[2] = test system: L02 human normal hepatocytes; test: Palmitate-induced non-alcoholic fatty liver disease cell model, levels of ROS, MDA, GSH, SOD and ATP in cell lysate; format: cell-based
Description: The salts of Example 1, Example 16, and Example 13 were taken as the compound of experimental groups, vitamin E was taken as the compound of control group. A blank group (without palmitate) and a model group (with palmitate but with neither the salt of the present application nor vitamin E) were also set.
L02 human normal hepatocytes were uniformly inoculated into a 96-well plate, about 5,000 cells per well. The cells were cultured in a complete DMEM for 6 h. After the cells were completely adhered to the wall, all the media were removed, 100 μL of serum-free medium containing 0.05 mg/mL palmitate was added to each well (for the blank group, a serum-free medium without palmitate), and the cells were cultured for 24 h.
Then, all the media were removed, 100 μL of serum-free DMEM containing […] compound of experimental groups or control group was added to each well (for the blank group and the model group, serum-free DMEM without the compound) according to the groups, and the cells were cultured for 24 h.
as §1

In the case of vitamin E, the “level of ROS in the cells” value ([1]; FIG. 6 (a)) is reported as “only slightly reduce”, the “level of MDA in the cells” value ([1]; FIG. 6 (b)) is reported as “only slightly reduce” and the “level of GSH in the cells” value ([1]; FIG. 6 (c)) is reported as “only slightly increase”. For the same substance, the “level of SOD in the cells” value ([1]; FIG. 6 (d)) was “only slightly increase”, the “level of ATP in the cells” value ([1]; FIG. 6 (e)) was “only partially increase” and the “level of ROS in the cells” value ([2]; FIG. 4 (a)) was “only slightly reduce”. The “level of MDA in the cells” value ([2]; FIG. 4 (b)) was “only slightly reduce”, the “level of GSH in the cells” value ([2]; FIG. 4 (c)) was “only slightly increase” and the “level of SOD in the cells” value ([2]; FIG. 4 (d)) was “only slightly increase”. For the same substance, the “level of ATP in the cells” value ([2]; FIG. 4 (e)) was “only partially increase”.
